The values below come from ChEMBL document CHEMBL1201862, “PubChem BioAssay data set” (2004).

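Test compounds were applied to cells in 96-well plates for 48 hours at 5 doses. GI50 is the concentration that inhibits growth by half.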 Activity calls are given as the source filed them. Cut-off read from the data, not from the text of the source: active = GI50 up to about 1.1 µM and inactive = higher. Peptide text beside a SMILES is read from it. A value given as a limit tells only on which side of the number the result lay.

What all share (assay): NCI anticancer screen, dose series, 48 h
For assay [1], the system named is SNB-75.
The subject of assay [2] is HCT-116.
Assay [3] has as its system HL-60.
The test system of assay [4] is MDA-N.
The subject of assay [5] is UACC-257.
The test system of assay [6] is SW-620.
Assay [7] concerns UO-31.
Assay [8] deals with UACC-62.
In assay [9] the test system is U-251.
Assay [10] has as its system PC-3.
Assay [11] has as its system SK-MEL-28.
Assay [12] concerns T47D.
Assay [13] has as its system SK-MEL-2.
The subject of assay [14] is SN12C.
Assay [15] deals with ACHN.
The test system of assay [16] is HOP-92.
In assay [17] the test system is HCT-15.
Assay [18] concerns MCF7.
Assay [19] has as its system TK-10.

On to `O=C(CCc1ccc(O)c(O)c1)NCCc1cc(O)c(O)c(O)c1`, for which the GI50 is 50.6 µM (inactive) in assay [1]; 18.6 µM (inactive) in assay [2]; 49.5 µM (inactive) in assay [3]; 16.9 µM (inactive) in assay [4]; 50.1 µM (inactive) in [5]; 18.8 µM (inactive) in assay [6]. The GI50 in [7] is 44.6 µM (inactive); in assay [8], 90.8 µM (inactive); in [9], 17.9 µM (inactive); in assay [10] it was > 100 µM (inactive); in assay [11], > 100 µM (inactive); in [12], 70.8 µM (inactive). Further, the GI50 in assay [13] was 21.8 µM (inactive); in assay [14], 17.9 µM (inactive); in [15], 33.8 µM (inactive); in assay [16], > 100 µM (inactive); in [17], 16.4 µM; in assay [18] it was 8.93 µM (inactive). In addition, the GI50 in assay [19] is > 100 µM (inactive).
In the case of `c1ccc2c(c1)cc1c3[nH]c4ccccc4c3ccn21`, the GI50 in assay [1] was > 10 µM (inactive); in [2], 6.92 µM (inactive); in assay [3] it was 0.687 µM (active); in [4] it was > 10 µM (inactive); in assay [5], > 10 µM (inactive); in assay [6], 6.78 µM (inactive). The GI50 in assay [7], in [8], in assay [9], in assay [10], in [11] and in [12] was > 10 µM (inactive) in each case. The GI50 was > 10 µM (inactive) in assay [13]; > 10 µM (inactive) in [14]; > 10 µM (inactive) in assay [15]; > 10 µM (inactive) in assay [16]; more than 10 µM in assay [17]; 1.19 µM (inactive) in [18]. The GI50 in [19] was > 10 µM (inactive).
On to `CC1=CCCC(C)(O)C2CC(CCC3(C)OC3CC1)C(C)C(=O)O2` (stereo not given), for which the GI50 in [1], in assay [2], in assay [3], in assay [4], in assay [5] and in assay [6] was > 100 µM (inactive) throughout. Also, the GI50 in [7], in assay [8], in [9], in assay [10], in assay [11] and in assay [12] was > 100 µM (inactive) each time. For the same molecule, the GI50 was > 100 µM (inactive) in assay [13]; > 100 µM (inactive) in assay [14]; > 100 µM (inactive) in [15]; > 10 µM (inactive) in [16]; more than 100 µM in assay [17]; > 100 µM (inactive) in assay [18]. The GI50 in assay [19] is > 100 µM (inactive).
As to `CC(=O)NC(CS)C(=O)NC(CO)C(=O)NC(CO)C(=O)NC(Cc1c[nH]c2ccccc12)C(=O)N1CCCC1C(=O)NC(CO)C(=O)NC(Cc1c[nH]c2ccccc12)C(=O)NC(Cc1c[nH]cn1)C(=O)NC(CO)C(=O)NC(Cc1c[nH]c2ccccc12)C(=O)NCC(=O)NCC(=O)NC(C)C(=O)NC(CCC(N)=O)C(=O)NC(CCCCN)C(=O)NC(C)C(=O)NC(CCCNC(=N)N)C(=O)NC(CCCCN)C(N)=O` (stereo not given) (Ac-CSSWPSWHSWGGAQKARK-NH2; configuration not given here), the GI50 in [1] was 13.9 µM (inactive); in assay [2] it was 34 µM (inactive); in assay [3] it was 12.4 µM (inactive); in assay [4], 19.1 µM (inactive); in assay [5], 10 µM (inactive); in assay [6], 23.4 µM (inactive). The GI50 in assay [7] was > 50 µM (inactive); in assay [8], 10.9 µM (inactive); in assay [9], 13 µM (inactive); in assay [10] it was > 50 µM (inactive); in [11] it was 11.1 µM (inactive); in assay [12], 11 µM (inactive). The GI50 is 26.4 µM (inactive) in assay [13]; 43 µM (inactive) in assay [14]; 17.7 µM (inactive) in assay [15]; > 50 µM (inactive) in [16]; 41.3 µM in [17]; 18.9 µM (inactive) in assay [18]. In addition, the GI50 in assay [19] was > 50 µM (inactive).
As for `Cc1ccccc1NC(=S)N/N=C(/c1ccccc1)c1ccccn1`, the GI50 in assay [1] was 0.933 µM (active); in assay [2] it was < 0.01 µM (active); in assay [3], < 0.0736 µM (active); in assay [4], 0.7 µM (active); in [5] it was < 0.01 µM (active); in assay [6], < 0.01 µM (active). Also, the GI50 in assay [7] is 0.0266 µM (active); in assay [8], 0.171 µM (active); in assay [9], < 0.01 µM (active); in assay [10], < 0.01 µM (active); in [11] it was 2.3 µM (inactive); in assay [12], < 0.01 µM (active). Besides, the GI50 in [13] was 3.36 µM (inactive); in [14], 0.067 µM (active); in assay [15] it was < 0.01 µM (active); in assay [16] it was 0.283 µM (active); in [17], less than 0.01 µM; in assay [18] it was 0.0215 µM (active). In addition, the GI50 in assay [19] was < 0.0295 µM (active).
Turning to `CCCCCN1C(=O)C(Cc2ccccc2)N=C(c2ccc(O)cc2)c2cc(Cl)ccc21` (stereo not given), the GI50 in [1] is 4.61 µM (inactive); in assay [2], 7.94 µM (inactive); in [3], 2.98 µM (inactive); in [4], > 21.2 µM (inactive); in assay [5], 7.66 µM (inactive); in assay [6] it was 10.9 µM (inactive). Further, the GI50 is 10.4 µM (inactive) in [7]; 10.3 µM (inactive) in assay [8]; 9.35 µM (inactive) in [9]; 6.21 µM (inactive) in [10]; 15.1 µM (inactive) in [11]; 3.72 µM (inactive) in [12]. In addition, the GI50 is 14.6 µM (inactive) in assay [13]; > 20.7 µM (inactive) in assay [14]; 13 µM (inactive) in [15]; 10.7 µM (inactive) in assay [16]; 7.67 µM in assay [17]; 9.98 µM (inactive) in [18]. The GI50 in assay [19] was 12.9 µM (inactive).
In the case of `NCCCc1c(-c2ccccc2)[nH]c(N)nc1=O`, the GI50 in assay [1], in [2], in assay [3], in assay [4], in assay [5] and in assay [6] was > 100 µM (inactive) in each case. For the same molecule, the GI50 in assay [7], in assay [8], in assay [9], in [10], in assay [11] and in assay [12] was > 100 µM (inactive) in each case. Moreover, the GI50 in [13] is > 100 µM (inactive); in assay [14] it was > 100 µM (inactive); in assay [15] it was > 100 µM (inactive); in assay [16] it was > 100 µM (inactive); in assay [17] it was more than 100 µM; in assay [18], > 100 µM (inactive). Further, the GI50 in assay [19] was > 100 µM (inactive).
Take `Nc1c(S(=O)(=O)O)cc(Nc2cccc(S(N)(=O)=O)c2)c2c1C(=O)c1ccccc1C2=O`: the GI50 in [1] was 29.6 µM (inactive); in assay [2], > 100 µM (inactive); in [3], > 100 µM (inactive); in assay [4] it was 20.3 µM (inactive); in [5], 54.2 µM (inactive); in [6], 74.5 µM (inactive). Besides, the GI50 in assay [7] is 97.3 µM (inactive); in assay [8], 24.2 µM (inactive); in assay [9] it was 46.5 µM (inactive); in [10], > 100 µM (inactive); in [11], > 100 µM (inactive); in assay [12] it was > 100 µM (inactive). In addition, the GI50 in [13] is 75.7 µM (inactive); in assay [14], > 100 µM (inactive); in [15], > 100 µM (inactive); in assay [16] it was > 100 µM (inactive); in [17] it was 84.5 µM; in assay [18], > 100 µM (inactive). For the same molecule, the GI50 in assay [19] was > 100 µM (inactive).
Take `O=S(=O)(O)C(Cc1nc2ccccc2[nH]1)S(=O)(=O)OCCC1S(=O)(=O)OCCOS1(=O)=O` (stereo not given): the GI50 in assay [1], in assay [2], in assay [3], in [4], in assay [5] and in assay [6] was > 100 µM (inactive) each time. Also, the GI50 in [7], in assay [8], in [9], in assay [10], in assay [11] and in [12] was > 100 µM (inactive) in each case. Moreover, the GI50 in assay [13] is > 100 µM (inactive); in assay [14] it was > 100 µM (inactive); in assay [15], > 100 µM (inactive); in assay [16], > 100 µM (inactive); in assay [17] it was more than 100 µM; in assay [18] it was > 100 µM (inactive). In addition, the GI50 in [19] was > 100 µM (inactive).
For the molecule `CN(Cc1cnc2nc(N)nc(N)c2n1)c1ccc(C(=O)NCCCC(=O)O)cc1`, the GI50 was > 62.7 µM (inactive) in [1]; 3.39 µM (inactive) in assay [2]; > 100 µM (inactive) in assay [3]; 7.57 µM (inactive) in [4]; 98.9 µM (inactive) in assay [5]; 5.7 µM (inactive) in [6]. In addition, the GI50 in assay [7] was 17.5 µM (inactive); in assay [8], 12.6 µM (inactive); in [9], 77.3 µM (inactive); in assay [10], 0.773 µM (active); in assay [11], > 100 µM (inactive); in assay [12], > 100 µM (inactive). In addition, the GI50 is > 100 µM (inactive) in assay [13]; > 100 µM (inactive) in assay [14]; 6.78 µM (inactive) in assay [15]; > 100 µM (inactive) in [16]; 6.01 µM in assay [17]; 5.02 µM (inactive) in assay [18]. Besides, in assay [19], the GI50 was > 69 µM (inactive).
